Reference: US20260256771A1, “GALUNISERTIB FOR USE IN THE TREATMENT OF ANDROGENIC ALOPECIA” (SAÚDE VIÁVEL, S.A., priority 2022, published 2026)

Key:
[1] = test system: human hair follicle organ cultures (HFOCs); assay: Ex vivo human scalp hair follicle organ culture: catagen onset and hair shaft elongation; format: cell-based; settings: 10 μM; in comparison to untreated controls; 10 days culture
Description: FIG. 2. Galunisertib delays catagen entry in HFOCs. a) Hair growth ex vivo (HFOCs) under different treatment conditions for 10 days. Representative HF photos for each condition over time are shown in the panels. DP detachment was used as readout for catagen onset. Scale bar, 1 mm. b) Catagen onset timing in HFOCs under different treatment conditions as indicated. c) Percentage of hair shaft elongation in comparison to day 0. In b) and c), values are mean±SD of HFOCs established from n=5 independent donors (n>20 HFs per condition). ns not significant, *p≤0.05, **p≤0.01 by Mann-Whitney (b,c).
In addition, only anagen hair follicles are used.
(§1) Hair growth percentages is normalized to day 0.

TGFβ2 protein = assay: Immunohistochemistry of cryo-sectioned HFOCs: TGFβ2; format: cell-based, human
Description: as §1
FIG. 4. Galunisertib inhibits TGFβ2 paracrine signaling in the bulb epithelial compartment. a) Representative Immunohistochemistry (IHC) images of tissue sections of HFOCs untreated and treated with Galunisertib as indicated and stained for TGFβ2 and p-SMAD2. In the upper left frame is exemplified how the dermal papilla (DP) and adjacent bulb epithelial compartment (HB) regions were delineated for quantitative analyses shown in b-e. Nuclei were counterstained with DAPI. Scale bar, 100 μm. b-e) Adjusted intensity levels of TGFβ2 and p-SMAD2 per DP and HB areas as measured in tissue sections from untreated and Galunisertib-treated HFOCs. Values are mean±SD of HFOCs established from n=4 donors (n>9 HFs per condition). ns p≥0.05, *p≤0.05 by unpaired t-test.
(§2) For immunohistochemistry, 2-day HFOCs are used for immunohistochemistry analysis. Briefly, HFs were embedded on a drop of OCT and stored at −80° C. 8 μm cryosections are air-dried and fixed in 4% PFA (for TGFβ2, cleavage Caspase 3, p-SMAD2 and KI67 immunostainings) or cold acetone (for LEF1 and β-catenin immunostaining). Following 2×5 min rinse with PBS, microsections are permeabilized 2× for 10 min with PBS+0.3% Triton X 100 (PBS-T) and then blocked with PBS+10% fetal bovine serum (FBS) for 1 hour at room temperature. […]

LEF1 = assay: Immunohistochemistry of cryo-sectioned HFOCs: LEF1; format: cell-based, human; settings: Galunisertib 48 h vs untreated
Description: as §1
FIG. 6. Galunisertib improves the WNT signaling in the bulb epithelial compartment. a) Representative IHC images of tissue sections of HFOCs with and without Galunisertib and stained for LEF1 (red) and β-catenin (green). Nuclei were counterstained with DAPI (blue). Scale bar, 100 μm. b,e) Adjusted intensity levels of LEF1 and β-catenin per DP and HB (bulb epithelium) areas, as measured in tissue sections from HFOCs with and without Galunisertib. All values are mean±SD of HFOCs established from n=4 donors (n>8 HFs per condition). ns p≥0.05, *p≤0.05 by unpaired t-test.
as §2, with “temperature. Antibodies are diluted in PBS-T+1% FBS and incubation done overnight at 4° C.” for “temperature.”

[2] = test system: Ki67 proliferation marker; assay: Ki67 immunohistochemistry of mouse dorsal skin (hair germ); format: in vivo
Method: FIG. 8. Galunisertib increases anagenic hair follicle growth. a) Hematoxilin-eosin staining of transversal paraffin sections of the dorsal skin of mice treated with vehicle (control), galunisertib (10 μM and 100 μM) or minoxidil at days 0, 5, 7, 14, 16 and 18 of treatment. Scale bar, 500 μm. b) Number of hair follicles per field view and c) number of hair follicles per field view in the subcutaneous layer at different timepoints along the experiment. d) Ki67 immunostaining of longitudinal paraffin sections of the dorsal skin of mice treated with vehicle (control), galunisertib (10 μM and 100 μM) or minoxidil at days 5, 7 and 14. Scale bar, 200 μm. e) Number of Ki67-positive cells in the hair bulb at days 5, 7 and 14. N≥3 animals per timepoint per condition were analyzed, and N≥4 field views were quantified per animal. Values are mean±SD. *p<0.05; **p<0.01 by Student's t-test.
For histology and immunohistochemistry, dorsal skin from the depilated region is collected from mice at different timepoints across the experiment (days 0, 5, 7, 14 and 18) and fixed in 10% buffered formalin, imbedded in paraffin and sectioned along the transversal and longitudinal plan of the hair follicles (3 μm sections). Standard protocol is used for hematoxylin and eosin staining. […]

## Cc1cccc(-c2nn3c(c2-c2ccnc4ccc(C(N)=O)cc24)CCC3)n1 [Galunisertib]
[1]
  catagen entry (mean time HFOCs take to enter catagen): capable of delaying catagen entry
  hair shaft elongation: impact in the hair shaft elongation
TGFβ2 protein; bulb epithelial compartment surrounding the DP, Galunisertib 48 h vs untreated
  TGFβ2 fluorescence intensity levels at the bulb epithelial compartment: decreased levels
TGFβ2 protein; dermal papilla, HFOCs with or without Galunisertib for 48 h
  DP levels of TGFβ2 (fluorescence intensity): isn't any significant change
LEF1; bulb epithelium
  LEF1 levels in the bulb epithelium: increased levels
LEF1; dermal papilla
  LEF1 levels in the DP: not significantly upregulated
[2]; day 7
  Ki67-positive cells in the hair germ, comparison with minoxidil: more effective than minoxidil
[2]; days 5, 7 and 14 post-treatment, vs vehicle treatment
  number of Ki67-positive cells in the hair germ: increased number of Ki67-positive cells
